Test results from US20260284074A1, “ENT1 Inhibitors in Combination with Checkpoint Inhibitors” (iTeos Belgium SA, priority 2023, published 2026).
Entries after “also recorded” stand apart in the source; their conditions may differ.

Legend:
[1] = test system: tumor infiltrating T cells; experiment: T cell proliferation in dissociated human tumor cell suspension cultures with ATP; format: cell-based; details: 500 μM ATP; CD3/CD28 microbeads and IL-2; Compound 1 300 nM; anti-PD-1 10 μg/mL; 3 days
Procedure: Human tumors were dissociated, and cells were CFSE-labelled and stimulated with CD3/CD28 microbeads and IL-2 in the presence of 500 μM of ATP as a source of adenosine.
Human tumor pieces were rinsed with cold PBS and cut into 1 to 2 mm fragments with a scalpel blade and transferred into GentleMACS C tubes. Dissociation of the tissue was completed with the Tumor Dissociation kit (Miltenyi Biotec) according to the manufacturer's instruction. Briefly, 5 mL of dissociation solution—containing 200 μL of enzyme H, 20 μL of enzyme R and 25 μL of enzyme A and RPMI until 5 mL—was added per gram of tumor. The tube was placed in the gentleMACS dissociator and the 1st program was run. An incubation step of 30 minutes at 37° C. was applied with rotation (MACSmix tube rotator). After this incubation, a quick centrifugation (30×rcf, 1 min) was performed, the supernatant containing dissociated cells was collected in a new tube containing FBS (30% of the total volume with supernatant) and placed at 4° C. […] A short centrifugation was performed, the cells in supernatant were pooled with the 1st collection and filtered through a 100 μm cell strainer which was washed with 10 mL RPMI 10% FBS 2% P/S. After centrifugation at 350×rcf for 10 min, cells were resuspended in 20 mL RPMI 10% FBS 2% P/S and counted with a haemocytometer. […]

ENT1 = ENT1 expression (FIG. 28C); format: cell-based, human
Procedure: FIGS. 28A, 28B, and 28C show the results of an experiment whereby human tumors were dissociated, and cells were CFSE-labelled and stimulated with CD3/CD28 microbeads and IL-2 in the presence of 500 μM of ATP as a source of adenosine. FIGS. 28A and 28B show data of Compound 1-mediated rescue of CD8+ T cell proliferation and TNF, IFNγ, and granzyme B, respectively, from dissociated tumor cell suspension cultures. Symbols represent each donor, bars are group mean±s.d. One-way RM ANOVA with Tukey's multiple comparisons test.

COc1cc(C(=O)O[C@@H]2CCCOc3cc(cc(OC)c3OC)C(=O)NCCCN3CCCN(CC2)CC3)cc(OC)c1OC [Compound 1, (12R)-7^4,7^5-dimethoxy-6-oxo-8-oxa-5-aza-1(1,4)-diazepana-7(1,3)-benzenacyclotetradecaphane-12-yl 3,4,5-trimethoxybenzoate]
Rescue of T cell proliferation suppressed by ATP [1]: restored; also recorded: partially reversed | ENT1 expression (ENT1): suppresses
